Values quoted from earlier work in patent EP0974361A1, “METHOD OF USING ANTACID AGENT AND PHARMACEUTICAL PREPARATION CONTAINING ANTACID AGENT” (CHUGAI SEIYAKU KABUSHIKI KAISHA, priority 1996, dated 1997).
Like-named read-outs stand apart in the source and are kept apart here.

In the case of `CC(C)Cc1ccc(C(C)C(=O)O)cc1` (centres unmarked) [ibuprofen], the absorption (used along with sucralfate (Anaya et al.)) is listed as “reduced and retarded”.

In the case of `CNC(=C[N+](=O)[O-])NCCSCc1ccc(CN(C)C)o1` [ranitidine], the “bioavailability dropped by” value (in vivo) is listed as 29%.

For `C[C@H]1O[C@@H](O[C@H]2[C@@H](O)C[C@H](O[C@H]3[C@@H](O)C[C@H](O[C@H]4CC[C@@]5(C)[C@H](CC[C@@H]6[C@@H]5C[C@@H](O)[C@]5(C)[C@@H](C7=CC(=O)OC7)CC[C@]65O)C4)O[C@@H]3C)O[C@@H]2C)C[C@H](O)[C@@H]1O` [digoxin], the drop in adsorption (used along with sucralfate (Giesing et al.)) is listed as 19%.

In the case of `CN/C(=N/CCSCc1nc[nH]c1C)NC#N` [cimetidine], the AUC (simultaneous administration of sucralfate (Yoshida et al.)) is given as “drop”.

In the case of `CC(=O)N1CCN(c2ccc(OCC3COC(Cn4ccnc4)(c4ccc(Cl)cc4Cl)O3)cc2)CC1` (centres unmarked) [ketoconazole], the “bioavailability dropped by” value (used along with sucralfate (Goss et al.; Maconochie et al.)) is listed as 21%.
